Paper PMC9834408, “The SPOC domain is a phosphoserine binding module that bridges transcription machinery with co- and post-transcriptional regulators” (Nature Communications, 2023)
Values joined by “and” are separate entries in the source; they are usually repeats but may differ in a detail not shown here. Identical values can stand only once. Like-named read-outs stand apart in the source and are kept apart here. Each block holds one molecule with its values, some of them ahead of it. Where a SMILES comes first, the peptide text is derived from it. [ ]: non-standard residue; d: D form. The star is where a group is joined. 5FAM = O=C1OC2(c3ccc(O)cc3Oc3cc(O)ccc32)c2ccc(C(=O)*)cc21; pS = N[C@@H](COP(=O)(O)O)C(=O)O

Tests used:
[1] = molecular target: T1, PHF3 SPOC (Homo sapiens, UniProt Q92576); experiment: Fluorescence anisotropy binding of labeled peptides to PHF3 SPOC WT
T1 construct: His6-PHF3 SPOC was generated previously; His6 (N, cleaved yes); made in house; host or cells: E. coli Rosetta2 (DE3)
T1 sequence (Q92576 1199-1356 limits assumed): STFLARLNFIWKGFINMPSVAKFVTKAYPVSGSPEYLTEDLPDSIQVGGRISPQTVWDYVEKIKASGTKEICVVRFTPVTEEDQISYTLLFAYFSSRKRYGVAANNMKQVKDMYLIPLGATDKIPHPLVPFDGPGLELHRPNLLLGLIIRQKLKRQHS
Procedure: (§1) SPOC domains were expressed in E. coli Rosetta2 (DE3) cells (Novagen). ON cultures were diluted 1:50 in 2×TY, grown at 37 °C until OD600 = 0.8, and induced with 0.5 mM IPTG for 3 h at 30 °C. […] Elution with 25 mM Tris-Cl pH 7.4, 500 mM NaCl, and 500 mM Imidazole was followed by TEV cleavage of the His6-tag and size exclusion chromatography using Sephacryl S-200 HR 16/600 or 26/600 (Cytiva) equilibrated in 25 mM Tris-Cl pH 7.4, 25 mM NaCl, 1 mM DTT.
(§2) One molar equivalent of Atto-488 NHS ester (Atto-tec) and five equivalents of DIPEA (Sigma-Aldrich) was added to three equivalents of the peptide. Reactions were incubated ON at room temperature (RT) and protected from light. Labeled peptides were purified by reverse-phase HPLC over a C18 column (Agilent Technologies) using a gradient from 30 to 70% Methanol (Merck). Purified peptides were lyophilized and stored at −20 °C.
(§3) Fluorescence anisotropy measurements were performed on a Perkin Elmer LS50 B fluorescence spectrometer operated by Perkin Elmar FL WinLab software (version 3.00). The excitation wavelength was set to 500 nm (excitation slit 10 nm), the emission wavelength to 518 nm (emission slit 6 nm), and the integration time to 1 s. Measurements were conducted at 20 °C in 25 mM Tris-Cl pH 7.4, 25 mM NaCl, and 1 mM DTT. The grating factor was determined using unconjugated Atto-488 dye. […]

[2] = molecular target: T2, PHF3 SPOC R1248A (Homo sapiens, UniProt Q92576, R1248A); experiment: Fluorescence anisotropy binding of labeled peptides to PHF3 SPOC R1248A; conditions: 90 nM labeled peptide, 25 mM Tris-Cl pH 7.4, 25 mM NaCl, 1 mM DTT, 20 °C, three independent experiments
T2 construct: His6-PHF3 SPOC was generated previously; His6 (N, cleaved yes); made in house; host or cells: E. coli Rosetta2 (DE3)
T2 sequence (Q92576 1199-1356 R1248A limits assumed): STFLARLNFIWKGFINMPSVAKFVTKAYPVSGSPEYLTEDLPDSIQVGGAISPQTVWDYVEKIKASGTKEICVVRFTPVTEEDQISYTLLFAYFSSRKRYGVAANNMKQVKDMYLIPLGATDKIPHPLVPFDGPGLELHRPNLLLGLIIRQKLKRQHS
Description: (§4) For mammalian expression, human DIDO3, SHARP, and RBM15 were amplified from HEK293T cDNA and cloned into CMV10 N3XFLAG (Sigma) by Gibson assembly (NEB). These constructs were used for cloning ΔSPOC truncations using Gibson assembly (NEB). CMV10 N3XFLAG-PHF3 and PHF3 ΔSPOC constructs were generated previously. NLS-SPOC constructs were cloned into CMV10 N3XFLAG (Sigma) between NotI and XbaI. NLS sequence ([…]) was introduced to ensure nuclear localization of the isolated SPOC domains. […] His6-PHF3 SPOC was generated previously. Arginine mutations were introduced by site-directed mutagenesis according to the FastCloning protocol. Repair templates for CRISPR/Cas9 knock-in were cloned by Gibson assembly. Primer sequences are listed in Supplementary Table 4.
(§5) SPOC domains were expressed in E. coli Rosetta2 (DE3) cells (Novagen). ON cultures were diluted 1:50 in 2×TY, grown at 37 °C until OD600 = 0.8, and induced with 0.5 mM IPTG for 3 h at 30 °C. […]
(§6) Fluorescence anisotropy measurements were performed on a Perkin Elmer LS50 B fluorescence spectrometer operated by Perkin Elmar FL WinLab software (version 3.00). […] The grating factor was determined using unconjugated Atto-488 dye. […]

[3] = molecular target: T3, DIDO SPOC (Homo sapiens, UniProt Q9BTC0); experiment: Fluorescence anisotropy binding of labeled peptides to DIDO SPOC WT; conditions: 90 nM labeled peptide, 25 mM Tris-Cl pH 7.4, 25 mM NaCl, 1 mM DTT, 20 °C, three independent experiments
T3 construct: human DIDO3 SPOC (1047–1205 aa); His6 (N, cleaved yes); made in house; host or cells: E. coli Rosetta2 (DE3)
T3 sequence (Q9BTC0 1047-1205): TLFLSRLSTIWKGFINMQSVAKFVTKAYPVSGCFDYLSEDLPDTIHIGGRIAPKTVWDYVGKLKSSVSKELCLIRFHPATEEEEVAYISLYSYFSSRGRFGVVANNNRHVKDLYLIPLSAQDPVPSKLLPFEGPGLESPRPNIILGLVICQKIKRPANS
Description: as §4, §5, §6

[4] = molecular target: T4, DIDO SPOC R1096A (Homo sapiens, UniProt Q9BTC0, R1096A); experiment: Fluorescence anisotropy binding of labeled peptides to DIDO SPOC R1096A; conditions: 90 nM labeled peptide, 25 mM Tris-Cl pH 7.4, 25 mM NaCl, 1 mM DTT, 20 °C, three independent experiments
T4 construct: human DIDO3 SPOC (1047–1205 aa); His6 (N, cleaved yes); made in house; host or cells: E. coli Rosetta2 (DE3)
T4 sequence (Q9BTC0 1047-1205 R1096A): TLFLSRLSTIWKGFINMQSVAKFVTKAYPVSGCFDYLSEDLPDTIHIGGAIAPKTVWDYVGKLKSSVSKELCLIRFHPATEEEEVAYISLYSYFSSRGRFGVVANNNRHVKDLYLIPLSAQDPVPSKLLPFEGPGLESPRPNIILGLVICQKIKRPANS
Description: as §4, §5, §6

[5] = molecular target: T5, RBM15 SPOC (Homo sapiens, UniProt Q96T37); experiment: Fluorescence anisotropy binding of labeled peptides to RBM15 SPOC WT; conditions: 90 nM labeled peptide, 25 mM Tris-Cl pH 7.4, 25 mM NaCl, 1 mM DTT, 20 °C, three independent experiments
T5 construct: RBM15 SPOC (775–960 aa); His6 (N, cleaved yes); made in house; host or cells: E. coli Rosetta2 (DE3)
T5 sequence (Q96T37 775-960): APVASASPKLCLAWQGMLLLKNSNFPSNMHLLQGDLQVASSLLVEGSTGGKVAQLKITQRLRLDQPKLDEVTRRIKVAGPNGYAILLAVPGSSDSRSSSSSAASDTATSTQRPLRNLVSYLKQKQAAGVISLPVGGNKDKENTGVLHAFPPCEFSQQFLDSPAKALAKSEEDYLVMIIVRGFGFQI
Description: as §4, §1, §2, §3

[6] = molecular target: T6, SHARP SPOC (Homo sapiens, UniProt Q96T58); experiment: Fluorescence anisotropy binding of labeled peptides to SHARP SPOC WT; conditions: 90 nM labeled peptide, 25 mM Tris-Cl pH 7.4, 25 mM NaCl, 1 mM DTT, 20 °C, three independent experiments
T6 construct: SHARP SPOC (3496–3664 aa); His6 (N, cleaved yes); made in house; host or cells: E. coli Rosetta2 (DE3)
T6 sequence (Q96T58 3496-3664): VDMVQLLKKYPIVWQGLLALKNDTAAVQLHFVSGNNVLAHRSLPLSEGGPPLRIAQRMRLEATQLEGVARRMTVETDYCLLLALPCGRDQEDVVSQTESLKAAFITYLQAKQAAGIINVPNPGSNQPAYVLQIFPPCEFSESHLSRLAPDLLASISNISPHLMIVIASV

[7] = molecular target: T7, SHARP SPOC R3552A (Homo sapiens, UniProt Q96T58, R3552A); experiment: Fluorescence anisotropy binding of labeled peptides to SHARP SPOC R3552A; conditions: 90 nM labeled peptide, 25 mM Tris-Cl pH 7.4, 25 mM NaCl, 1 mM DTT, 20 °C, three independent experiments
T7 construct: SHARP SPOC (3496–3664 aa); His6 (N, cleaved yes); made in house; host or cells: E. coli Rosetta2 (DE3)
T7 sequence (Q96T58 3496-3664 R3552A): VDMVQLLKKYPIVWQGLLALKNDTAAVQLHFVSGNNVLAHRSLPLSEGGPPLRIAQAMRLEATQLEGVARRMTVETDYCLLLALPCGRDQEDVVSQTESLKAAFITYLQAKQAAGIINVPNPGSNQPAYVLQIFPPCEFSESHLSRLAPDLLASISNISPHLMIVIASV
Description: as §4, §5, §6

Compound: C[C@@H](O)[C@H](NC(=O)[C@@H]1CCCN1C(=O)[C@H](CO)NC(=O)[C@H](Cc1ccc(O)cc1)NC(=O)[C@H](CO)NC(=O)[C@@H]1CCCN1C(=O)[C@H](CO)NC(=O)[C@@H](NC(=O)[C@@H]1CCCN1C(=O)[C@H](COP(=O)(O)O)NC(=O)[C@H](Cc1ccc(O)cc1)NC(=O)[C@H](CO)NC(=O)[C@@H]1CCCN1)[C@@H](C)O)C(=O)N[C@@H](CO)C(=O)N1CCC[C@H]1C(=O)N[C@@H](CO)C(=O)O [1xS2P]
Kd [1]: 103 ± 4 µM

Compound: C[C@@H](O)[C@H](NC(=O)[C@@H]1CCCN1C(=O)[C@H](COP(=O)(O)O)NC(=O)[C@H](Cc1ccc(O)cc1)NC(=O)[C@H](CO)NC(=O)[C@@H]1CCCN1C(=O)[C@H](CO)NC(=O)[C@@H](NC(=O)[C@@H]1CCCN1C(=O)[C@H](COP(=O)(O)O)NC(=O)[C@H](Cc1ccc(O)cc1)NC(=O)[C@H](CO)NC(=O)[C@@H]1CCCN1)[C@@H](C)O)C(=O)N[C@@H](CO)C(=O)N1CCC[C@H]1C(=O)N[C@@H](CO)C(=O)O [2xS2P]
Kd [2]: 8.4 ± 0.3 µM
Kd ([1]; PHF3 SPOC WT, fluorescence anisotropy, 90 nM labeled peptide titrated with SPOC domain, 25 mM Tris-Cl pH 7.4, 25 mM NaCl, 1 mM DTT, 20 °C, three independent experiments, read-out: Kd): 0.42 ± 0.02 µM
Kd [3]: 4.8 ± 0.6 µM
Kd [4]: 22.4 ± 2.1 µM

Compound: C[C@@H](O)[C@H](NC(=O)[C@@H]1CCCN1C(=O)[C@H](CO)NC(=O)[C@H](Cc1ccc(O)cc1)NC(=O)[C@H](CO)NC(=O)[C@@H]1CCCN1C(=O)[C@H](COP(=O)(O)O)NC(=O)[C@@H](NC(=O)[C@@H]1CCCN1C(=O)[C@H](CO)NC(=O)[C@H](Cc1ccc(O)cc1)NC(=O)[C@H](CO)NC(=O)[C@@H]1CCCN1)[C@@H](C)O)C(=O)N[C@@H](COP(=O)(O)O)C(=O)N1CCC[C@H]1C(=O)N[C@@H](CO)C(=O)O [2xS5P]
Kd ([5]; read-out: Kd): 11.8 µM and 29.6 µM
Kd [6]: 20.6 ± 0.1 µM

Compound: C[C@@H](O)[C@H](NC(=O)[C@@H]1CCCN1C(=O)[C@H](CO)NC(=O)[C@H](Cc1ccc(O)cc1)NC(=O)[C@H](COP(=O)(O)O)NC(=O)[C@@H]1CCCN1C(=O)[C@H](CO)NC(=O)[C@@H](NC(=O)[C@@H]1CCCN1C(=O)[C@H](CO)NC(=O)[C@H](Cc1ccc(O)cc1)NC(=O)[C@H](CO)NC(=O)[C@@H]1CCCN1)[C@@H](C)O)C(=O)N[C@@H](CO)C(=O)N1CCC[C@H]1C(=O)N[C@@H](COP(=O)(O)O)C(=O)O [2xS7P]
Kd ([5]; Kd): 23.5 ± 0.4 µM

Kd [7]: 23.3 ± 0.5 µM
Compound: CC(C)C[C@H](NC(=O)[C@H](CC(C)C)NC(=O)[C@@H]1CCCN1C(=O)[C@H](C)NC(=O)[C@@H]1CCCN1C(=O)[C@H](CCC(=O)O)NC(=O)[C@H](CCCNC(=N)N)NC(=O)c1ccc2c(c1)C(=O)OC21c2ccc(O)cc2Oc2cc(O)ccc21)C(=O)N[C@@H](CO)C(=O)N[C@@H](C)C(=O)N[C@@H](CCC(N)=O)C(=O)N[C@@H](Cc1ccc(O)cc1)C(=O)N[C@@H](CCC(=O)O)C(=O)N[C@H](C(=O)N[C@@H](CC(C)C)C(=O)N[C@@H](COP(=O)(O)O)C(=O)N[C@@H](CC(=O)O)C(=O)N[C@@H](CO)C(=O)N[C@@H](CC(=O)O)C(=O)N[C@@H](CC(=O)O)C(=O)O)[C@@H](C)O [NCoR pS2436] (5FAM-REPAPLLSAQYETL[pS]DSDD-OH)

Kd [7]: 262 ± 74.2 µM
Compound: CC(C)C[C@H](NC(=O)[C@H](CC(C)C)NC(=O)[C@@H]1CCCN1C(=O)[C@H](C)NC(=O)[C@@H]1CCCN1C(=O)[C@H](CCC(=O)O)NC(=O)[C@H](CCCNC(=N)N)NC(=O)c1ccc2c(c1)C(=O)OC21c2ccc(O)cc2Oc2cc(O)ccc21)C(=O)N[C@@H](CO)C(=O)N[C@@H](C)C(=O)N[C@@H](CCC(N)=O)C(=O)N[C@@H](Cc1ccc(O)cc1)C(=O)N[C@@H](CCC(=O)O)C(=O)N[C@H](C(=O)N[C@@H](CC(C)C)C(=O)N[C@@H](CO)C(=O)N[C@@H](CC(=O)O)C(=O)N[C@@H](CO)C(=O)N[C@@H](CC(=O)O)C(=O)N[C@@H](CC(=O)O)C(=O)O)[C@@H](C)O [NCoR] (5FAM-REPAPLLSAQYETLSDSDD-OH)

Kd ([5]; read-out: Kd): 21.5 ± 1.5 µM
Compound: CSCC[C@H](NC(=O)c1ccc2c(c1)C(=O)OC21c2ccc(O)cc2Oc2cc(O)ccc21)C(=O)N[C@H](C(=O)N[C@@H](CC(N)=O)C(=O)N[C@@H](CCC(=O)O)C(=O)N[C@@H](CCC(=O)O)C(=O)N1CCC[C@H]1C(=O)N[C@@H](CC(C)C)C(=O)N1CCC[C@H]1C(=O)N[C@@H](CCCCN)C(=O)N[C@@H](CCCCN)C(=O)N[C@H](C(=O)N[C@@H](CCCNC(=N)N)C(=O)N[C@@H](CC(C)C)C(=O)N[C@@H](COP(=O)(O)O)C(=O)N[C@@H](CCC(=O)O)C(=O)N[C@H](C(=O)N[C@@H](CC(=O)O)C(=O)N[C@@H](Cc1ccccc1)C(=O)N[C@@H](CCCCN)C(=O)O)[C@@H](C)O)C(C)C)[C@@H](C)O [WTAP pS14] (5FAM-MTNEEPLPKKVRL[pS]ETDFK-OH)
